In general, IC50 refers to the midpoint of a concentration-inhibition curve.

Test [1] addresses human orexin-2 receptor (hOX2R) (Homo sapiens (Human), UniProt O43614). The test can be described thus: Measurement of orexin antagonistic activity (intracellular Ca2+ fluorescence, FDSS), hOX2R. The test is classed as cell-based. Particulars: CHO cells forcibly expressing hOX2R; ligand peptide (modified human orexin-A) 3 nM; maximum fluorescence intensity; read-out: IC50 Value OX2. As for the experimental part:
(§1) The antagonistic activities of the test compounds on human orexin-1 receptor (hOX1R) and orexin-2 receptor (hOX2R) were measured by modifying from the method described in literature (Toshikatsu Okumura et al., Biochemical and Biophysical Research Communications 280, 976-981, 2001). Chinese hamster ovary (CHO) cells forcibly expressing the hOX1R and hOX2R were seeded into a 96 well Black clear bottom plate (Nunc) at 20,000 cells per well, which were cultured in Ham's F-12 medium containing 0.1 mM MEM non-essential amino acids, 0.5 mg/ml G418, 10% fetal bovine serum (all by Invitrogen) for 16 hours under the conditions of 37° C., 5% CO2. After removing the medium, 100 μL of 0.5 μM Fluo-4AM ester (Dojin) in an assay buffer (25 mM HEPES (Dojin), Hank's balanced salt solution (Invitrogen), 0.1% bovine serum albumin, 2.5 mM probenecid, 200 μg/ml Amaranth (all by Sigma-Aldrich), pH 7.4) was added and the cells were incubated for 60 minutes at 37° C., 5% CO2. After removing the assay buffer containing […] ester, the test compound was dissolved in dimethyl sulfoxide to be 10 mM and diluted with the assay buffer, 150 μL of which was added and incubated for 30 minutes.
(§2) The reaction was measured for the fluorescence intensity of each well every second for 3 minutes using Functional Drug Screening System (FDSS; Hamamatsu Photonics K.K.), and the antagonistic activity was determined using the maximum fluorescence intensity as the indicator of intracellular Ca2+ concentration.

Test [2] has as its target human orexin-1 receptor (hOX1R) (Homo sapiens (Human), UniProt O43613). In words: Measurement of orexin antagonistic activity (intracellular Ca2+ fluorescence, FDSS), hOX1R. In kind it is cell-based. The conditions noted are these: CHO cells forcibly expressing hOX1R; ligand peptide (modified human orexin-A) 300 pM; maximum fluorescence intensity; read-out: IC50 Value OX1. As for the experimental part:
as §1, with “Chinese” for “The antagonistic activities of the test compounds on human orexin-1 receptor (hOX1R) and orexin-2 receptor (hOX2R) were measured by modifying from the method described in literature (Toshikatsu Okumura et al., Biochemical and Biophysical Research Communications 280, 976-981, 2001). Chinese”
as §2

Chain of human orexin-2 receptor (hOX2R) (O43614 whole entry): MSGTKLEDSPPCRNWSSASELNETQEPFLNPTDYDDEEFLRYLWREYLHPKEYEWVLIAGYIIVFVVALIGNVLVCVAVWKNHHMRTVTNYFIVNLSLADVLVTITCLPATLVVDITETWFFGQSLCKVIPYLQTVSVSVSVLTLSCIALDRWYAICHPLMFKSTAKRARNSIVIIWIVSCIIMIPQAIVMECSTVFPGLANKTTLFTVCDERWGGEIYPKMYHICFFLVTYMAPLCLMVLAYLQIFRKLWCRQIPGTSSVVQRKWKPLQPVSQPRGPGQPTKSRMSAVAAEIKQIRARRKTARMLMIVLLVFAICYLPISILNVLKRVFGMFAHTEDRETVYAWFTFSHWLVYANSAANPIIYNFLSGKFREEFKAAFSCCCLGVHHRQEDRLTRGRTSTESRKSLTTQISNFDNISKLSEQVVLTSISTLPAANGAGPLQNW
Chain of human orexin-1 receptor (hOX1R) (O43613 whole entry): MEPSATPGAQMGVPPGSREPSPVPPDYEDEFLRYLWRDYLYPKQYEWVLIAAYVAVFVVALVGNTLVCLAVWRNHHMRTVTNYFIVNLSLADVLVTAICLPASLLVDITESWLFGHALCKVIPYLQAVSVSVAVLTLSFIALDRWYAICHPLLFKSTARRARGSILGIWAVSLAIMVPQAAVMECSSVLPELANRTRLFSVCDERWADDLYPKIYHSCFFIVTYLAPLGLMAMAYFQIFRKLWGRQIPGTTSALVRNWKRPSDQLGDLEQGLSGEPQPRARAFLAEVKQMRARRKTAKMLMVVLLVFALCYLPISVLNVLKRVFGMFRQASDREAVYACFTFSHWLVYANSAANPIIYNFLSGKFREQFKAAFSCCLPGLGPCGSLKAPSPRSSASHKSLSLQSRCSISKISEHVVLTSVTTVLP

As to `Cc1ccc(-n2nccn2)c(C(=O)N2[C@H](Cn3cc(-c4ccc(F)cn4)cn3)OC[C@@H]2C)c1` [Example 10, (−)-[(2S,4S)-2-[[4-(5-fluoropyridin-2-yl)-1H-pyrazol-1-yl]methyl]-4-methyl-1,3-oxazolidin-3-yl] [5-methyl-2-(2H-1,2,3-triazol-2-yl)phenyl] methanone], the figures for the half-maximal inhibitory concentration (IC50) in test [1] and in test [2] were 273 nM and 201 nM, respectively.

For the compound `Cc1ccc(-n2nccn2)c(C(=O)N2[C@H](Cn3cc(-c4ccc(F)cn4)cn3)OCC[C@@H]2C)c1` [Example 39, [(2S,4S)-2-{[4-(5-Fluoropyridin-2-yl)-1H-pyrazol-1-yl]methyl}-4-methyl-1,3-oxazinan-3-yl}[5-methyl-2-(2H-1,2,3-triazol-2-yl)phenyl]methanone], the 50% inhibitory concentration (IC50) was 46.6 nM in test [1] and 81.2 nM in test [2].

These data come from patent US9266870B2 (TAISHO PHARMACEUTICAL CO., LTD., priority 2012, dated 2016).
